Data reported in the NIST ThermoML archive (doi:10.1016/j.jct.2017.03.006).
± gives the expanded uncertainty stated by the source.

Test: xn = mol fraction of the nth substance listed
Details: 313.15 K, Liquid; for viscosity: Concentric cylinders viscometry; for mass density: Vibrating tube method

Cc1ccc(C)c(C)c1 [1,2,4-trimethylbenzene] + CCC(C)O
viscosity (100 kPa, x2 = 0.5298): 0.773 ± 0.017 mPa·s
viscosity (100 kPa, x2 = 0.6001): 0.84 ± 0.018 mPa·s
viscosity (100 kPa, x2 = 0.7001): 0.94 ± 0.02 mPa·s
viscosity (100 kPa, x2 = 0.7997): 1.09 ± 0.023 mPa·s
viscosity (100 kPa, x2 = 0.9001): 1.35 ± 0.028 mPa·s
mass density (100 kPa, x2 = 0): 859 ± 0.7 kg/m3
mass density (100 kPa, x2 = 0.1): 852.6 ± 0.7 kg/m3
mass density (100 kPa, x2 = 0.1989): 846.6 ± 0.7 kg/m3
mass density (100 kPa, x2 = 0.3011): 840.2 ± 0.7 kg/m3
mass density (100 kPa, x2 = 0.4002): 834 ± 0.7 kg/m3
mass density (100 kPa, x2 = 0.5001): 827.5 ± 0.7 kg/m3
mass density (100 kPa, x2 = 0.5997): 820.6 ± 0.7 kg/m3
mass density (100 kPa, x2 = 0.6999): 813.4 ± 0.7 kg/m3
mass density (100 kPa, x2 = 0.7999): 806 ± 0.7 kg/m3
mass density (100 kPa, x2 = 0.9): 797.9 ± 0.7 kg/m3
mass density (1000 kPa, x2 = 0): 859.7 ± 0.7 kg/m3
mass density (1000 kPa, x2 = 0.1): 853.3 ± 0.7 kg/m3
mass density (1000 kPa, x2 = 0.1989): 847.2 ± 0.7 kg/m3
mass density (1000 kPa, x2 = 0.3011): 840.9 ± 0.7 kg/m3
mass density (1000 kPa, x2 = 0.4002): 834.7 ± 0.7 kg/m3
mass density (1000 kPa, x2 = 0.5001): 828.2 ± 0.7 kg/m3
mass density (1000 kPa, x2 = 0.5997): 821.3 ± 0.7 kg/m3
mass density (1000 kPa, x2 = 0.6999): 814.2 ± 0.7 kg/m3
mass density (1000 kPa, x2 = 0.7999): 806.7 ± 0.7 kg/m3
mass density (1000 kPa, x2 = 0.9): 798.7 ± 0.7 kg/m3
mass density (2000 kPa, x2 = 0): 860.4 ± 0.7 kg/m3
mass density (2000 kPa, x2 = 0.1): 854.1 ± 0.7 kg/m3
mass density (2000 kPa, x2 = 0.1989): 848 ± 0.7 kg/m3
mass density (2000 kPa, x2 = 0.3011): 841.7 ± 0.7 kg/m3
mass density (2000 kPa, x2 = 0.4002): 835.6 ± 0.7 kg/m3
mass density (2000 kPa, x2 = 0.5001): 829.1 ± 0.7 kg/m3
mass density (2000 kPa, x2 = 0.5997): 822.2 ± 0.7 kg/m3
mass density (2000 kPa, x2 = 0.6999): 815 ± 0.7 kg/m3
mass density (2000 kPa, x2 = 0.7999): 807.6 ± 0.7 kg/m3
mass density (2000 kPa, x2 = 0.9): 799.6 ± 0.7 kg/m3
mass density (5000 kPa, x2 = 0): 862.6 ± 0.7 kg/m3
mass density (5000 kPa, x2 = 0.1): 856.3 ± 0.7 kg/m3
mass density (5000 kPa, x2 = 0.1989): 850.3 ± 0.7 kg/m3
mass density (5000 kPa, x2 = 0.3011): 844.1 ± 0.7 kg/m3
mass density (5000 kPa, x2 = 0.4002): 838 ± 0.7 kg/m3
mass density (5000 kPa, x2 = 0.5001): 831.5 ± 0.7 kg/m3
mass density (5000 kPa, x2 = 0.5997): 824.6 ± 0.7 kg/m3
mass density (5000 kPa, x2 = 0.6999): 817.5 ± 0.7 kg/m3
mass density (5000 kPa, x2 = 0.7999): 810.1 ± 0.7 kg/m3
mass density (5000 kPa, x2 = 0.9): 802.1 ± 0.7 kg/m3
mass density (10000 kPa, x2 = 0): 866 ± 0.7 kg/m3
mass density (10000 kPa, x2 = 0.1): 860 ± 0.7 kg/m3
mass density (10000 kPa, x2 = 0.1989): 854.1 ± 0.7 kg/m3
mass density (10000 kPa, x2 = 0.3011): 847.9 ± 0.7 kg/m3
mass density (10000 kPa, x2 = 0.4002): 841.7 ± 0.7 kg/m3
mass density (10000 kPa, x2 = 0.5001): 835.4 ± 0.7 kg/m3
mass density (10000 kPa, x2 = 0.5997): 828.5 ± 0.7 kg/m3
mass density (10000 kPa, x2 = 0.6999): 821.5 ± 0.7 kg/m3
mass density (10000 kPa, x2 = 0.7999): 814.2 ± 0.7 kg/m3
mass density (10000 kPa, x2 = 0.9): 806.2 ± 0.7 kg/m3
mass density (15000 kPa, x2 = 0): 869.3 ± 0.7 kg/m3
mass density (15000 kPa, x2 = 0.1): 863.5 ± 0.7 kg/m3
mass density (15000 kPa, x2 = 0.1989): 857.6 ± 0.7 kg/m3
mass density (15000 kPa, x2 = 0.3011): 851.5 ± 0.7 kg/m3
mass density (15000 kPa, x2 = 0.4002): 845.4 ± 0.7 kg/m3
mass density (15000 kPa, x2 = 0.5001): 839.1 ± 0.7 kg/m3
mass density (15000 kPa, x2 = 0.5997): 832.3 ± 0.7 kg/m3
mass density (15000 kPa, x2 = 0.6999): 825.3 ± 0.7 kg/m3
mass density (15000 kPa, x2 = 0.7999): 818 ± 0.7 kg/m3
mass density (15000 kPa, x2 = 0.9): 810.1 ± 0.7 kg/m3
mass density (20000 kPa, x2 = 0): 872.6 ± 0.7 kg/m3
mass density (20000 kPa, x2 = 0.1): 866.8 ± 0.7 kg/m3
mass density (20000 kPa, x2 = 0.1989): 861 ± 0.7 kg/m3
mass density (20000 kPa, x2 = 0.3011): 854.9 ± 0.7 kg/m3
mass density (20000 kPa, x2 = 0.4002): 848.9 ± 0.7 kg/m3
mass density (20000 kPa, x2 = 0.5001): 842.6 ± 0.7 kg/m3
mass density (20000 kPa, x2 = 0.5997): 835.9 ± 0.7 kg/m3
mass density (20000 kPa, x2 = 0.6999): 829 ± 0.7 kg/m3
mass density (20000 kPa, x2 = 0.7999): 821.7 ± 0.7 kg/m3
mass density (20000 kPa, x2 = 0.9): 813.8 ± 0.7 kg/m3
mass density (30000 kPa, x2 = 0): 878.7 ± 0.7 kg/m3
mass density (30000 kPa, x2 = 0.1): 873.2 ± 0.7 kg/m3
mass density (30000 kPa, x2 = 0.1989): 867.5 ± 0.7 kg/m3
mass density (30000 kPa, x2 = 0.3011): 861.5 ± 0.7 kg/m3
mass density (30000 kPa, x2 = 0.4002): 855.6 ± 0.7 kg/m3
mass density (30000 kPa, x2 = 0.5001): 849.4 ± 0.7 kg/m3
mass density (30000 kPa, x2 = 0.5997): 842.8 ± 0.8 kg/m3
mass density (30000 kPa, x2 = 0.6999): 835.8 ± 0.8 kg/m3
mass density (30000 kPa, x2 = 0.7999): 828.6 ± 0.8 kg/m3
mass density (30000 kPa, x2 = 0.9): 820.8 ± 0.8 kg/m3
mass density (40000 kPa, x2 = 0): 884.5 ± 0.7 kg/m3
mass density (40000 kPa, x2 = 0.1): 879.2 ± 0.7 kg/m3
mass density (40000 kPa, x2 = 0.1989): 873.5 ± 0.8 kg/m3
mass density (40000 kPa, x2 = 0.3011): 867.6 ± 0.8 kg/m3
mass density (40000 kPa, x2 = 0.4002): 861.7 ± 0.8 kg/m3
mass density (40000 kPa, x2 = 0.5001): 855.8 ± 0.8 kg/m3
mass density (40000 kPa, x2 = 0.5997): 849 ± 0.8 kg/m3
mass density (40000 kPa, x2 = 0.6999): 842.2 ± 0.8 kg/m3
mass density (40000 kPa, x2 = 0.7999): 835 ± 0.8 kg/m3
mass density (40000 kPa, x2 = 0.9): 827.3 ± 0.8 kg/m3
mass density (50000 kPa, x2 = 0): 889.9 ± 0.8 kg/m3
mass density (50000 kPa, x2 = 0.1): 884.8 ± 0.8 kg/m3
mass density (50000 kPa, x2 = 0.1989): 879.3 ± 0.8 kg/m3
mass density (50000 kPa, x2 = 0.3011): 873.4 ± 0.8 kg/m3
mass density (50000 kPa, x2 = 0.4002): 867.5 ± 0.8 kg/m3
mass density (50000 kPa, x2 = 0.5001): 861.6 ± 0.8 kg/m3
